From publication PMC2682652 (PLoS ONE, 2009) come the findings set out here.

This experiment deals with intraperitoneal MDA-MB-435 xenograft tumors. The experiment is described as follows: Tumor reduction study, peritoneal carcinomatosis. The experiment is classed as in vivo, SCID-mice. The settings on record: 6×1.85 MBq i.p., days 16-26 after inoculation, groups of 8 mice; p = 0.04.

Protocol: To generate intraperitoneal xenograft tumors, 6–8 week old SCID-mice (Charles River, Sulzfeld, Germany) were injected i.p. with 1×10^7 MDA-MB435 tumor cells. Mice were weighed weekly and were sacrificed when the mean normal body weigth decreased <25% or when mice developped tumor side effects like ascites or reduced general condititon. All experiments were performed according to the German law for the protection of animals.
SCID-mice (Charles River, Sulzfeld, Germany) were injected i.p. with 1×10^7 MDA-MB-435 cells expressing firefly luciferase in 100 µl PBS. […] All experiments were performed three times. The animals were controlled daily until they were sacrificed.

`O=C([O-])CN(CCN(CC(=O)[O-])CC(=O)[O-])CCN(CC(=O)[O-])CC(=O)[O-].[213Bi+3]` [^213Bi-DTPA]: the mean survival turned out to be 48 days.
